Like-named read-outs stand apart in the source and are kept apart here.
Columns and labels:
SW620 Ad300 cells = assay: cells; type: cell-based, human
SW620 cells = assay: resazurin cell viability assay, SW620; type: cell-based, human
[1] = target: oncogenic mutant K-Ras (mGFP-K-Ras G12V) (Homo sapiens, UniProt P01116, G12V); type: cell-based, canine; conditions: MDCK cells stably expressing mGFP-KRasG12V and mCherry-CAAX, 48 h; for IC50: read-out: IC50 (concentration needed for 50% PM mislocalisation)
P-glycoprotein (P-gp) = P-glycoprotein (P-gp) (Homo sapiens, UniProt P08183); assay: calcein AM flow cytometry assay in P-gp over-expressing SW620 Ad300 cells; conditions: 20 μM
[2] = read-out: SW620 Ad300 IC50, P-gp over-expressing SW620 Ad300, resazurin
[3] = read-out: SW620 IC50, colon cancer cell line SW620, resazurin

Chain of P-glycoprotein (P-gp) (P08183 whole entry): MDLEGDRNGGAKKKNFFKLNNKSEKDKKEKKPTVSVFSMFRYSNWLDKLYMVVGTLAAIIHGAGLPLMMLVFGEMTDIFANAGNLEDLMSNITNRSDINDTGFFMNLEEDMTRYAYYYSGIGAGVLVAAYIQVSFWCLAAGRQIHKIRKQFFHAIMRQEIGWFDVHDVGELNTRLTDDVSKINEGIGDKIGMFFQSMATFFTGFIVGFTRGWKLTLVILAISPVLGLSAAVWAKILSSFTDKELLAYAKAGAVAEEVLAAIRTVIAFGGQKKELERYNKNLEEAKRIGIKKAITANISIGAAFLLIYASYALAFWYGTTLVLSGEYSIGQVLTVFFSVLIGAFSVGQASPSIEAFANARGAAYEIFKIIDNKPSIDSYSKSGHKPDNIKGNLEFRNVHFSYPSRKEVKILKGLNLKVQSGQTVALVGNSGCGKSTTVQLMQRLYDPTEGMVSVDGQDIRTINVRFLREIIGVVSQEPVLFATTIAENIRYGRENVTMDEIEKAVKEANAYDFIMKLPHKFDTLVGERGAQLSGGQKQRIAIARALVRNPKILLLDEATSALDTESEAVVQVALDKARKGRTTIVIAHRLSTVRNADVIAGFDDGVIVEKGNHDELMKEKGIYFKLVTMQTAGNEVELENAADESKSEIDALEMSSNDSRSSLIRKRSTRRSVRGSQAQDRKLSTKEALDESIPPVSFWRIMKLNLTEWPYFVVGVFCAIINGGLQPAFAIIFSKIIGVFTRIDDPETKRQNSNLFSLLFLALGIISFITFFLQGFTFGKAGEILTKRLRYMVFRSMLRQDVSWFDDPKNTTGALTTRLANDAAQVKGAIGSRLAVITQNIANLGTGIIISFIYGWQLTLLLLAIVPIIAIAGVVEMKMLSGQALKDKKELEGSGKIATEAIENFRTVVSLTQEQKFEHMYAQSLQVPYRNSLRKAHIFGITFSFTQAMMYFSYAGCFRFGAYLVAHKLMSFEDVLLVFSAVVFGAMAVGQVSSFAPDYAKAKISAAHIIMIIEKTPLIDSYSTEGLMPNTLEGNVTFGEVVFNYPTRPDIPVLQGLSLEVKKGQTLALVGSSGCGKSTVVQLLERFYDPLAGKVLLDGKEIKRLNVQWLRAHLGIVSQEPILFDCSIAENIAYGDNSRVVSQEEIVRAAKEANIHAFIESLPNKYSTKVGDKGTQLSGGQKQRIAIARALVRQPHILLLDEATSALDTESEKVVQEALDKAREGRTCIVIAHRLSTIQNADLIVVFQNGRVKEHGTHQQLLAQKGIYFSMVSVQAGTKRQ

Compound | FR (fold resistance, ratio IC50 SW620Ad300 / IC50 SW620) (SW620 Ad300 cells) | IC50 (SW620 Ad300 cells; [2]) [µM] | IC50 (SW620 cells; [3]) [µM] | Emax (highest Manders coefficient, maximum extent of K-Ras PM mislocalisation) [1] | IC50 [1] [µM] | FAR (fluorescence arbitrary ratio), calcein fluorescence intensity vs PBS (P-glycoprotein (P-gp)) | IC50 (SW620 Ad300 cells; Homo sapiens, SW620/AD300, read-out: SW620 Ad300 IC50) [µM] | IC50 (SW620 cells; Homo sapiens, SW-620, read-out: SW620 IC50) [µM] | FR (fold resistance) with co-administration of verapamil (SW620 Ad300 cells; co-administration of P-gp inhibitor verapamil)
CC[C@H]1/C=C/C=C/C[C@@H](C)[C@H](O)[C@@](C)(O)C(=O)[C@@H](C)[C@H](O)[C@@H](C)C(=O)[C@@H](C)[C@H](O)[C@@H](C)/C=C/C(=O)O[C@H]2C[C@@]3(CC[C@H](C)[C@H](C[C@@H](C)O)O3)O[C@@H](CC1)[C@H]2C [compound 4, oligomycin D] | 0.35 | 12.9 ± 1 | 36 ± 2.3 | 0.72 ± 0.01 | 0.00349 ± 8e-05 | – | – | – | –
oligomycin A [compound 1] | 0.27 | 4 ± 1.1 | 14.6 ± 2.5 | 0.75 ± 0.02 | – | – | – | – | –
CC[C@H]1/C=C/C=C/C[C@@H](C)[C@H](O)[C@@](C)(O)C(=O)[C@@H](C)[C@H](O)[C@@H](C)C(=O)[C@@H](C)[C@H](O)[C@@H](C)/C=C/C(=O)O[C@@H]2[C@H](C)[C@H](CC1)O[C@@]1(O[C@@H](C[C@@H](C)O)[C@@H](C)CC1=O)[C@H]2C [compound 2, oligomycin B] | 0.76 | 12.9 ± 1.3 | 17 ± 0.6 | 0.67 ± 0.02 | 0.00351 ± 0.00016 | – | – | – | –
CC[C@H]1/C=C/C=C/C[C@@H](C)[C@H](O)[C@@](C)(O)C(=O)[C@@H](C)[C@H](O)[C@@H](C)C(=O)[C@@H](C)[C@H](O)[C@@H](C)/C=C/C(=O)O[C@@H]2[C@H](C)[C@H](C[C@H]1O)O[C@]1(CC[C@H](C)[C@H](C[C@@H](C)O)O1)[C@H]2C [compound 6, 21-hydroxy-oligomycin A] | 0.82 | 11.8 ± 3.1 | 14.4 ± 0.6 | 0.76 ± 0.04 | 0.00482 ± 0.0007 | – | – | – | –
CC[C@H]1/C=C/C=C/C[C@@H](C)[C@H](O)[C@@](C)(O)C(=O)[C@@H](C)[C@H](O)[C@@H](C)C(=O)[C@@H](C)[C@H](O)[C@@H](C)/C=C/C(=O)O[C@@H]2[C@H](C)[C@H](CC1)O[C@@]1(O[C@@H](C[C@@H](C)O)[C@@H](C)CC1=O)[C@]2(C)O [compound 5, oligomycin E] | 0.56 | 4 ± 0.8 | 7.1 ± 0.4 | 0.73 ± 0.06 | 0.0049 ± 0.00064 | 48.2 | – | – | –
CC[C@@H]1C=CC=CC[C@H](C)[C@@H](O)[C@@H](C)C(=O)[C@H](C)[C@@H](O)[C@H](C)C(=O)[C@H](C)[C@@H](O)[C@H](C)C=CC(=O)O[C@H]2[C@@H](C)[C@@H](CC1)O[C@@]1(CC[C@@H](C)[C@@H](C[C@H](C)O)O1)[C@@H]2C [compound 3, oligomycin C] | 1.1 | – | – | 0.72 ± 0.03 | – | – | 22.5 ± 3.8 | 19.8 ± 1.2 | –
CC[C@H]1/C=C/C=C/C[C@@H](CO)[C@H](O)[C@@](C)(O)C(=O)[C@@H](C)[C@H](O)[C@@H](C)C(=O)[C@@H](C)[C@H](O)[C@@H](C)/C=C/C(=O)O[C@@H]2[C@H](C)[C@H](CC1)O[C@@]1(O[C@@H](C[C@@H](C)O)[C@@H](C)CC1=O)[C@H]2C [compound 8, 40-hydroxy-oligomycin B] | 1.2 | 16.4 ± 1.5 | 13.6 ± 0.4 | 0.73 ± 0.05 | 0.00591 ± 0.00162 | – | – | – | –
COc1cccc2c1C(=O)c1c(O)c3c(c(O)c1C2=O)C[C@@](O)(C(=O)CO)C[C@@H]3O[C@H]1C[C@H](N)[C@H](O)[C@H](C)O1 [doxorubicin, reference compound] | 22 | – | – | – | – | – | – | – | 2.4
CC[C@H]1/C=C/C=C/C[C@@H](C)[C@H](O)[C@H](C)C(=O)[C@@H](C)[C@H](O)[C@@H](C)C(=O)[C@@H](C)[C@H](O)[C@@H](C)/C=C/C(=O)O[C@@H]2[C@H](C)[C@H](C[C@H]1O)O[C@]1(CC[C@H](C)[C@H](C[C@@H](C)O)O1)[C@H]2C [compound 7, 21-hydroxy-oligomycin C] | 0.54 | 3.1 ± 0.2 | 5.7 ± 0.9 | 0.68 ± 0.01 | 0.0141 ± 0.00024 | – | – | – | –

— PMC4689619 (Organic & biomolecular chemistry, 2016)
